Reference: patent US10294236B2, “Compounds as rearranged during transfection (RET) inhibitors” (GLAXOSMITHKLINE INTELLECTUAL PROPERTY DEVELOPMENT LIMITED, priority 2014, dated 2019)
Where a name gives a salt, the structure may show the parent alone.

Target: T1, Human RET kinase cytoplasmic domain (Homo sapiens, UniProt P07949)
T1 construct: made in house
T1 sequence (P07949 658-1114): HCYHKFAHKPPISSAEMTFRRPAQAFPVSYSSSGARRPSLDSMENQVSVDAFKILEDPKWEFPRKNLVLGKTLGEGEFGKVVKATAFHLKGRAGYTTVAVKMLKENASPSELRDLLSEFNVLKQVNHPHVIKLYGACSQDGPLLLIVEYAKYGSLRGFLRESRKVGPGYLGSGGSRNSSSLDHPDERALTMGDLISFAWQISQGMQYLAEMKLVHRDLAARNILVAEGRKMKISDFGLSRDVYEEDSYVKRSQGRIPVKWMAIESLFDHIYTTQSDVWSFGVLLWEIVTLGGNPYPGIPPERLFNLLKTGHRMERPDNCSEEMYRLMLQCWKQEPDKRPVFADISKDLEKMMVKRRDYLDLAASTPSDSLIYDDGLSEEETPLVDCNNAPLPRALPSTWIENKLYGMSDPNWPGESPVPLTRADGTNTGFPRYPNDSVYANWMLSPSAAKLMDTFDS
Assay: RET kinase enzymatic assay
Assay type: biochemical
In short: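 GST-RET, 0.2 nM in 2× enzyme mix (HEPES, CHAPS, BSA, DTT), preincubated with inhibitor 30 min at 23 °C. Reaction for 1 h at 23 °C after adding 2× substrate mix: 20 μM ATP, 20 mM MgCl2, 1 μM biotinylated peptide. Single wells per concentration; IC50 from sigmoidal dose-response fit.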

IC50 [nM]	SMILES
< 100	CC1(Oc2ccc(NC(=O)Nc3ccc(-c4ccc(=O)[nH]c4)cc3)cc2C(F)F)COC1 [Example 169]
< 100	CC1(Oc2ccc(NC(=O)Nc3ccc(-c4c[nH]c(=O)cc4OC(F)F)cc3F)cc2C(F)(F)F)COC1 [Example 126]
< 100	CCOc1cc(=O)[nH]cc1-c1ccc(NC(=O)Nc2ccc(OC3(C)COC3)c(C(F)(F)F)c2)c(F)c1 [Example 18, 1-(4-(4-Ethoxy-6-oxo-1,6-dihydropyridin-3-yl)-2-fluorophenyl)-3-(4-((3-methyloxetan-3-yl)oxy)-3-(trifluoromethyl)phenyl)urea]
< 100	CC1(Oc2ccc(NC(=O)Nc3ccc(-c4c[nH]c(=O)c(OC5CC5)c4)cc3F)cc2C(F)(F)F)COC1 [Example 20, 1-(4-(5-Cyclopropoxy-6-oxo-1,6-dihydropyridin-3-yl)-2-fluorophenyl)-3-(4-((3-methyloxetan-3-yl)oxy)-3-(trifluoromethyl)phenyl)urea]
< 100	CCOc1cc(-c2ncc(NC(=O)Nc3ccc(C(C)(C)O)c(C(F)(F)F)c3)c(C)n2)c[nH]c1=O [Example 71, 1-(2-(5-Ethoxy-6-oxo-1,6-dihydropyridin-3-yl)-4-methylpyrimidin-5-yl)-3-(4-(2-hydroxypropan-2-yl)-3-(trifluoromethyl)phenyl)urea]
< 100	CCOc1cc(-c2ccc(NC(=O)Nc3cnc(OC4(C)COC4)c(C(F)(F)F)c3)c(F)c2)c[nH]c1=O [Example 148]
< 100	CCOc1cc(-c2ccc(NC(=O)Nc3ccc(OC(C)(C)COC)c(C(F)(F)F)c3)c(F)c2)c[nH]c1=O [Example 159]
< 100	CCOc1cc(-c2nc(C)c(NC(=O)Nc3ccc(CN(C)C)c(C(F)(F)F)c3)c(C)n2)c[nH]c1=O [Example 59, 1-(4-((Dimethylamino)methyl)-3-(trifluoromethyl)phenyl)-3-(2-(5-ethoxy-6-oxo-1,6-dihydropyridin-3-yl)-4,6-dimethylpyrimidin-5-yl)urea]
< 100	CCOc1cc(-c2cc(C)c(NC(=O)Nc3ccc(OC4(C)COC4)c(C(F)(F)F)c3)cn2)c[nH]c1=O [Example 97]
< 100	CC1(Oc2ccc(NC(=O)Nc3ccc(-c4c[nH]c(=O)c5c4OCC5)cc3F)cc2C(F)(F)F)COC1 [Example 22, 1-(2-Fluoro-4-(4-oxo-2,3,4,5-tetrahydrofuro[3,2-c]pyridin-7-yl)phenyl)-3-(4-((3-methyloxetan-3-yl)oxy)-3-(trifluoromethyl)phenyl)urea]
< 100	CCOc1cc(Oc2ccc(NC(=O)Nc3ccc(OC4(C)COC4)c(C(F)(F)F)c3)cn2)c[nH]c1=O [Example 101]
< 100	CCOc1cc(-c2ccc(NC(=O)Nc3ccc(OC4(C)CCOC4)c(C(F)(F)F)c3)c(F)c2)c[nH]c1=O (centres unmarked) [Example 167]
< 100	CCOc1cc(-c2ccc(NC(=O)Nc3ccc(CC(F)(F)CO)c(C(F)(F)F)c3)c(F)c2)c[nH]c1=O [Example 125]
< 100	CCOc1cc(-c2cnc(NC(=O)Nc3ccc(CC(C)(C)CO)c(C(F)(F)F)c3)c(C)c2)c[nH]c1=O [Example 9, 1-(5′-Ethoxy-5-methyl-6′-oxo-1′,6′-dihydro-[3,3′-bipyridin]-6-yl)-3-(4-(3-hydroxy-2,2-dimethylpropyl)-3-(trifluoromethyl)phenyl)urea]
< 100	CCOc1cc(-c2cnc(NC(=O)Nc3ccc(CC(C)(C)CO)c(C(F)(F)F)c3)c(C)n2)c[nH]c1=O [Example 41, 1-(5-(5-Ethoxy-6-oxo-1,6-dihydropyridin-3-yl)-3-methylpyrazin-2-yl)-3-(4-(3-hydroxy-2,2-dimethylpropyl)-3-(trifluoromethyl)phenyl)urea]
< 100	O=C(Nc1ccc(F)c(C(F)(F)F)c1)Nc1ccc(-c2c[nH]c(=O)c(OCCCF)c2)cc1F [Example 107]
< 100	CCOc1cc(=O)[nH]cc1-c1ncc(NC(=O)Nc2cc(C(C)(C)C(F)(F)F)on2)c(C)n1 [Example 46, 1-(2-(4-Ethoxy-6-oxo-1,6-dihydropyridin-3-yl)-4-methylpyrimidin-5-yl)-3-(5-(1,1,1-trifluoro-2-methylpropan-2-yl)isoxazol-3-yl)urea]
< 100	CCOc1ccc(NC(=O)Nc2ccc(-c3c[nH]c(=O)c4c3CCC4)cc2F)cc1C(F)(F)F [Example 3, 1-(4-Ethoxy-3-(trifluoromethyl)phenyl)-3-(2-fluoro-4-(1-oxo-2,5,6,7-tetrahydro-1H-cyclopenta[c]pyridin-4-yl)phenyl)urea]
< 100	CCOc1cc(-c2ccc(NC(=O)Nc3ccc(Cl)c(C(F)(F)F)c3)c(F)c2)c[nH]c1=O [Example 152]
< 100	CCOc1cc(-c2ncc(NC(=O)Nc3ccc(CN(C)C)c(C(F)(F)F)c3)cn2)c[nH]c1=O [Example 179, 1-(4-((Dimethylamino)methyl)-3-(trifluoromethyl)phenyl)-3-(2-(5-ethoxy-6-oxo-1,6-dihydropyridin-3-yl)pyrimidin-5-yl)urea]
< 100	CCOc1cc(-c2ccc(NC(=O)Nc3ccc(OC(C)C)c(C(F)F)c3)c(C)n2)c[nH]c1=O [Example 6, 1-(3-(Difluoromethyl)-4-isopropoxyphenyl)-3-(5′-ethoxy-6-methyl-6′-oxo-1′,6′-dihydro-[2,3′-bipyridin]-5-yl)urea]

IC50 [nM]	SMILES
< 100	CCOc1cc(=O)[nH]cc1-c1ncc(NC(=O)Nc2ccc(C(C)C#N)c(C(F)(F)F)c2)c(C)n1 (centres unmarked) [Example 24, 1-(4-(1-Cyanoethyl)-3-(trifluoromethyl)phenyl)-3-(2-(4-ethoxy-6-oxo-1,6-dihydropyridin-3-yl)-4-methylpyrimidin-5-yl)urea]
< 100	CCOCc1ccc(NC(=O)Nc2ccc(-c3c[nH]c(=O)c(OCC)c3)cc2F)cc1C(F)(F)F [Example 151]
< 100	CCOc1cc(-c2ccc(NC(=O)Nc3ccc(C(C)(C)CO)c(C(F)(F)F)c3)c(F)c2)c[nH]c1=O [Example 120]
< 100	CCOc1cc(=O)[nH]cc1-c1ccc(NC(=O)Nc2ccc(OC3(C)COC3)c(C(F)F)c2)c(F)c1 [Example 124]
< 100	CCOc1cc(=O)[nH]cc1-c1ncc(NC(=O)Nc2ccc(CC3(C)COC3)c(C(F)(F)F)c2)c(C)n1 [Example 12, 1-(2-(4-Ethoxy-6-oxo-1,6-dihydropyridin-3-yl)-4-methylpyrimidin-5-yl)-3-(4-((3-methyloxetan-3-yl)methyl)-3-(trifluoromethyl)phenyl)urea]
< 100	O=C(Nc1ccc(-c2c[nH]c(=O)c3occc23)cc1F)Nc1cc(C(F)(F)F)ccc1F [Example 155]
< 100	COCCOc1cc(-c2ncc(NC(=O)Nc3cc(C(F)(F)F)c(CN4CCN(C)CC4)cc3F)c(C)n2)c[nH]c1=O [Example 184, 1-(2-Fluoro-4-((4-methylpiperazin-1-yl)methyl)-5-(trifluoromethyl)-phenyl)-3-(2-(5-(2-methoxyethoxy)-6-oxo-1,6-dihydropyridin-3-yl)-4-methylpyrimidin-5-yl)urea trihydrochloride]
< 100	CCOc1cc(=O)[nH]cc1-c1ncc(NC(=O)Nc2ccc(CC(C)(C)N)c(C(F)(F)F)c2)c(C)n1 [Example 186, 1-(4-(2-Amino-2-methylpropyl)-3-(trifluoromethyl)phenyl)-3-(2-(4-ethoxy-6-oxo-1,6-dihydropyridin-3-yl)-4-methylpyrimidin-5-yl)urea]
< 100	CC1(Oc2ccc(NC(=O)Nc3ccc(-c4ccc(=O)[nH]c4)cc3)cc2C(F)(F)F)COC1 [Example 157]
< 100	CCOc1cc(=O)[nH]cc1-c1ncc(NC(=O)Nc2ccc(Cl)c(C(F)(F)F)c2)c(C)n1 [Example 54, 1-(4-Chloro-3-(trifluoromethyl)phenyl)-3-(2-(4-ethoxy-6-oxo-1,6-dihydropyridin-3-yl)-4-methylpyrimidin-5-yl)urea]
< 100	CC(C)Oc1ccc(NC(=O)Nc2ccc(-c3ccc(=O)[nH]c3)cc2)cc1C(F)(F)F [Example 163]
< 100	CCOc1cc(-c2ccc(NC(=O)Nc3ccc(CN(C)C)c(C(F)(F)F)c3)c(F)c2)c[nH]c1=O [Example 76]
< 100	CCOc1cc(-c2ccc(NC(=O)Nc3ccc(OC4(C)COC4)c(C(F)(F)F)c3)c(F)c2F)c[nH]c1=O [Example 119]
< 100	CCOc1cc(-c2ccc(NC(=O)Nc3ccc(OC4(C)COC4)c(C(F)(F)F)c3)c(F)c2)c[nH]c1=O [Example 130]
< 100	CCOc1cc(Oc2ccc(NC(=O)Nc3cc(C(F)(F)F)ccc3F)cc2)c[nH]c1=O [Example 86]
< 100	CCOc1cc(-c2ccc(NC(=O)Nc3ccc(OC4(C)COC4)c(C(F)(F)F)c3)c(Cl)n2)c[nH]c1=O [Example 87]
100 to 500	CCOc1cc(-c2ccc(NC(=O)Nc3ccc(OC4(C)COC4)c(C(F)(F)F)c3)c(N(C)C)n2)c[nH]c1=O [Example 112]
< 100	CCOc1cc(-c2cnc(NC(=O)Nc3ccc(OC4(C)COC4)c(C(F)(F)F)c3)c(F)c2)c[nH]c1=O [Example 103]
< 100	CCOc1cc(-c2ncc(NC(=O)Nc3ccc(CC(C)(C)CO)c(C(F)(F)F)c3)c(C)n2)c[nH]c1=O [Example 48, 1-(2-(5-Ethoxy-6-oxo-1,6-dihydropyridin-3-yl)-4-methylpyrimidin-5-yl)-3-(4-(3-hydroxy-2,2-dimethylpropyl)-3-(trifluoromethyl)phenyl)urea]
< 100	CC(C)(O)c1ccc(NC(=O)Nc2ccc(-c3c[nH]c(=O)c4ccccc34)cc2F)cc1C(F)(F)F [Example 75]
